Assays:
[1] = test system: E. coli K88 cells; assay: Pathogen agglutination, microscopic analysis; format: cell-based; settings: 0.025%, pH 7.0, 10 minutes; versus xylose, penta- and deca-xylo-oligo-saccharides
Protocol: Tri and/or tetra-manno-oligo-saccharides were incubated in liquid at a dose of 0.025% at pH 7.0 with E. coli K88 and Lactobacillus amylovorus cells for 10 minutes. After 10 minutes, agglutination was visualised by means of microscopic analysis.

[2] = Chicken performance (weight, feed conversion); format: in vivo, chickens; settings: feed with 3 ppm flavomycin or 0.025% oligo-saccharides
Source text: 3×40 one day old chickens were provided with following feeds: control feed, control feed supplemented with 3 ppm flavomycin and control feed supplemented with 0.025% tri- and/or tetra-manno-oligo-saccharides. The control feed was a mash feed, composed of raw materials suitable for animal nutrition. Water and feed were supplied ad libitum. The chickens were contaminated at day 2 with caecum contents of 3 week old chickens (most critical period for gastrointestinal problems). At regular time intervals, chickens were dissected and the enteric pathogen contents in the small intestine were determined by plate counting on MacConkey agar.
The same experimental conditions were applied as described in experiment 1. In this example, daily growth and feed conversion were monitored after 13 days.

Molecule | agglutination, comparison of degree of polymerisation of xylo-oligo-saccharides [1] | Feed conversion/chicken ([2]; after 13 days) | Weight/chicken at day 1 ([2]; day 1) | Weight/chicken at day 13 ([2]; day 13)
OC1OC[C@@H](O[C@@H]2OC[C@@H](O[C@@H]3OC[C@@H](O)[C@H](O)[C@H]3O)[C@H](O)[C@H]2O)[C@H](O)[C@H]1O (some centres unmarked) [tri-xylo-oligo-saccharides] | best agglutination | – | – | –
flavomycin | – | 1.51 | 43.54 | 208.8
tetra-xylo-oligo-saccharides | best agglutination | – | – | –

Source: patent publication US8729051B2, “Tri- and tetra-oligo-saccharides suitable as agglutination agents for enteric pathogens” (Nutrition Sciences N.V./S.A., priority 2006, dated 2014)
